Data from patent publication US20220248744A1, “NICOTINE MATERIALS, METHODS OF MAKING SAME, AND USES THEREOF” (The Research Foundation for the State University of New York, priority 2019, published 2022).

Assay: Thermal analysis (differential scanning calorimetry / melting point): thermodynamic stability
Type: physicochemical
Details: based on DSC thermal analysis
Protocol: Differential Scanning calorimetry (DSC). A differential scanning calorimeter, model DSC Q200 (TA Instrument, USA) was used to measure the thermal transitions of the samples. About 10 mg of each synthesized compound was placed into an aluminum pan and sealed. Each sample, except (S)-nicotinium 2,6-Dihydroxybenzoate, was scanned from 0 to 150° C. at 20° C./min under nitrogen flow for at least 2 full cycles. (S)-nicotinium 2,6-Dihydroxybenzoate was scanned from 0 to 175° C. at 20° C./min under nitrogen flow for at least 2 full cycles.
Melting Point (MP): A Stuart SMP10 melting point apparatus was utilized to measure the melting point of each of the synthesized compounds. 4 replicates were run for each compound. The plateau temperature was set to 100° C. for each of the salts, except (S)-nicotinium D-malate, and then ramped at 2° C./minute. The plateau temperature was set to 80° C. for the (S)-nicotinium D-malate salt and ramped at 2° C./minute.
Thermal Analysis. […] This was confirmed via differential scanning calorimetry (DSC) by a very broad endotherm 116.4° C. […] This was confirmed by DSC where in the sharp endotherm at 123.5° C. indicated the melting of this (S)-nicotinium L-malate salt. […] This was confirmed via DSC, wherein the sharp endotherm at 95.2° C. The orthorhombic P212121 (S)-nicotinium DL-malate was initially observed as having a broad melting point of 76-78° C. The was confirmed via DSC wherein a melting point of 77.8° C., though with a very broad curve. […] Monoclinic P21 (S)-nicotinium 2,6-dihydroxybenzoate salt had the highest melting observed thus far. The sharp endotherm at 158.5° C. confirmed the observed melting point. Monoclinic P21 (S)-nicotinium 2,5-dihydroxyterephthalate was observed initially as having a tight melting point range of 196-198° C.

Structure (SMILES) | thermodynamic / thermal stability
CN1CCC[C@H]1c1cccnc1.O=C(O)C[C@H](O)C(=O)O [orthorhombic P212121 (S)-nicotinium L-malate] | more thermodynamically stable than the orthorhombic P212121 (S)-nicotinium D-malate
CN1CCC[C@H]1c1cccnc1.O=C(O)C[C@H](O)C(=O)O [monoclinic P21 (S)-nicotinium L-malate, (S)-nicotinium L-malate] | most thermodynamically favored and stable malate salt
CN1CCC[C@H]1c1cccnc1.O=C(O)c1cc(O)c(C(=O)O)cc1O [(S)-nicotinium 2,5-dihydroxyterephthalate] | highest observed thermal stability
CN1CCCC1c1cccnc1.O=C(O)CC(O)C(=O)O [(S)-nicotinium D-malate] | thermodynamically less stable than either of the (S)-nicotinium L-malate salts
CN1CCC[C@H]1c1cccnc1.O=C(O)c1c(O)cccc1O [(S)-nicotinium 2,6-dihydroxybenzoate] | highest observed thermal stability

Same assay, conditions: based on DSC thermal analysis; listed as Monoclinic P21 (S)-nicotinium L-malate

Structure (SMILES) | thermodynamic / thermal stability
CN1CCC[C@H]1c1cccnc1.O=C(O)C[C@H](O)C(=O)O [monoclinic P21 (S)-nicotinium L-malate, (S)-nicotinium L-malate] | thermodynamically more stable than the orthorhombic P212121 (S)-nicotinium L-malate

Assay: not given
Details: UV λ=300 nm, air flow, 1H NMR

Structure (SMILES) | degradation after 24 hours of UV irradiation
O=C(O)c1cc(=O)[nH]c(=O)[nH]1 [orotic acid] | no orotic acid degradation
CN1CCCC1c1cccnc1.O.O=C(O)c1cc(=O)[nH]c(=O)[nH]1 [(S)-nicotinium orotate monohydrate] | no degradation
CN1CCC[C@H]1c1cccnc1.O=C(O)c1ccccc1O [monoclinic P21 (S)-nicotinium salicylate, (S)-nicotinium salicylate] | no degradation
CN1CCC[C@H]1c1cccnc1.O=C(O)C[C@H](O)C(=O)O [orthorhombic P212121 (S)-nicotinium L-malate] | no degradation
CN1CCC[C@H]1c1cccnc1.O=C(O)C[C@H](O)C(=O)O [monoclinic P21 (S)-nicotinium L-malate, (S)-nicotinium L-malate] | no degradation
O=C(O)c1cc(O)c(C(=O)O)cc1O [2,5-Dihydroxyterepthalic Acid] | no 2,5-dihydroxyterephthalic acid degradation
CN1CCC[C@H]1c1cccnc1.O=C(O)c1cc(O)c(C(=O)O)cc1O [(S)-nicotinium 2,5-dihydroxyterephthalate] | no degradation
CN1CCCC1c1cccnc1.O=C(O)CC(O)C(=O)O [(S)-nicotinium D-malate] | no degradation
CN1CCC[C@H]1c1cccnc1.O=C(O)c1c(O)cccc1O [(S)-nicotinium 2,6-dihydroxybenzoate] | no degradation

Assay: not given
Details: cited from earlier work

Structure (SMILES) | pKa (Strongest Acidic)
O=C(/C=C/c1ccc(O)c(O)c1)O[C@@H](C(=O)O)[C@@H](O)C(=O)O [Caftaric Acid] | 2.96
OC[C@@H](O)[C@H](O)[C@@H](O)CO [Xylitol] | 12.76
OC[C@H]1O[C@@](CO)(O[C@H]2O[C@H](CO)[C@@H](O)[C@H](O)[C@H]2O)[C@@H](O)[C@@H]1O [Sucrose] | 11.84
CC(O)(CC(=O)O)C(=O)O (stereo not shown) [Citramalic Acid] | 3.35
C[N+](C)(C)CC(=O)O [Betaine] | 2.26
CC1CCC(C(C)C)C(O)C1 (stereo not shown) [Menthol] | 19.55
COc1ccc(O)c(C(=O)O)c1 [5-Methoxysalicylic acid] | 2.52
OC[C@H]1O[C@H](O[C@]2(CCl)O[C@H](CCl)[C@@H](O)[C@@H]2O)[C@H](O)[C@@H](O)[C@H]1Cl [Sucralose] | 1.91
O=C(O)c1cc(Cc2ccc(O)c(C(=O)O)c2)ccc1O [5,5′-Methylenedisalicylic Acid] | 2.94
COC(=O)[C@H](Cc1ccccc1)NC(=O)[C@@H](N)CC(=O)O [Aspartame] | 3.53
C=C1C[C@@]23CC[C@H]4[C@@](C)(CCC[C@@]4(C)C(=O)O)[C@@H]2CC[C@]1(O)C3 [Steviol] | 4.70
O=C[C@H](O)[C@@H](O)[C@@H](O)[C@H](O)C(=O)O [Galacturonic Acid] | 3.24
O=C(O)C(O)C(=O)O [Tartronic Acid] | 2.42
COc1ccccc1C(=O)O [Ortho-Anisic Acid] | 3.73
Nc1cccc(C(=O)O)c1O [3-Aminosalicylic Acid] | 2.90
OC[C@@H](O)[C@@H](O)CO [Erythritol] | 13.04
O=C(O)CCC(=O)O [Succinic Acid] | 3.55
CC(=O)C(=O)O [Pyruvic Acid] | 2.93
COc1ccc(C(=O)O)cc1 [Para-Anisic Acid] | 4.37
O=C(O)c1c(O)cc(O)cc1O [2,4,6-Trihydroxybenzoic Acid] | 1.83
C[N+](C)(C)CC(O)CC(=O)[O-] (stereo not shown) [Carnitine] | 4.20
O=C(O)c1c(O)cccc1O [2,6-Dihydroxybenzoic Acid] | 1.51
COc1ccc(C(=O)O)c(O)c1 [4-Methoxysalicylic Acid] | 3.09
O=C(O)/C=C\C(=O)O [Maleic Acid] | 3.05
O=C(O)/C=C/C(=O)O [Fumaric Acid] | 3.55
O=C(O)[C@H](O)[C@@H](O)[C@@H](O)[C@H](O)CO [Galactonic Acid] | 3.39
O=C(O)C=Cc1ccccc1 [Cinnamic acid] | 4.01
NC(C(=O)O)C(=O)O [Aminomalonic Acid] | 0.45
COc1cccc(C(=O)O)c1 [Meta-Anisic Acid] | 3.84

Assay: Aerosolization/Vaporization Analysis (iStick Pico with Sai atomizer, syringe as lung analog)
Details: heating in bucket coil; decarboxylation of the acid coformer

Structure (SMILES) | degradation product formed during vaporization
CN1CCC[C@H]1c1cccnc1.O=C(O)c1ccccc1O [monoclinic P21 (S)-nicotinium salicylate, (S)-nicotinium salicylate] | phenol was likely also formed
